Source: patent US6897319B2, “Useful aroyl pyrrole heteroaryl methanones and methanols” (Ortho-McNeil Pharmaceutical, Inc., priority 2001, dated 2005)

Key:
[1] = system: voltage-gated sodium channels; assay: [14C]guanidinium flux assay in SK-N-SH cells (veratridine stimulus); assay type: cell-based; conditions: 10 μM compound, 100 μM veratridine
Protocol: Screening Assay for Voltage-Gated Sodium Channel Antagonists [^14C] Guanidinium Flux Assay
SK-N-SH neuroblastoma cells were maintained in a propagation medium containing modified Eagle's medium and 10% (v/v) fetal bovine serum and were incubated at 37° C. in a 5% CO2 atmosphere. Only cells with fewer than 20 passages were used in each assay. All drugs were prepared in DMSO, and the final concentration of solvent was less than 0.1% (v/v). Veratridine, a toxin that selectively promotes persistent activation of voltage-gated sodium channels, served as the stimulus.
SK-N-SH cells were plated at 1×10^5 cells/well in 96-well Cytostar-T microscintillating plates in propagation medium and experiments were performed 6-7 days after plating. Prior to assay, the SK-N-SH cells were washed twice with assay buffer containing 50 mM HEPES (pH 7.45), 5.4 mM potassium chloride, 0.8 mM magnesium chloride, 130 mM choline chloride, 5.5 mM glucose and 0.1 mg/mL bovine serum albumin. Next, the plates were allowed to equilibrate for 10 min at 37° C. in assay buffer. After this incubation period, the cells were stimulated with 100 μM veratridine in the presence or absence of investigational compounds prepared in a 96-well plate (prepared at a final concentration of 10 μM in DMSO). The 96-well dosing plate was prepared by mixing 25 μL of a drug/assay buffer solution per well with 25 μL of 0.7 μCi/mL [^14C]guanidine hydrochloride in assay buffer. 50 μL aliquots from the dosing plate were then added to the cells. One sample containing 100 μM veratridine and 10 μM tetrodotoxin accounted for nonspecific activity. The plates were incubated for 1 hr at room temperature and the radioactivity was counted in a 1450 Microbeta scintillation counter.

[2] = system: mechanical allodynia after L5 spinal nerve ligation; assay: Chung Model (spinal nerve ligation) antiallodynic effect; assay type: in vivo; conditions: po; rat, orally administered
From the text: Procedure for Testing Antiallodynic Effect
The procedure used to detect the antiallodynic effect of a compound of the present invention for which there is a good correlation with human efficacy for the treatment of pain is the procedure for the measurement of allodynia found in the Chung Model (Kim S. H. and Chung J. M., An Experimental Model for Peripheral Neuropathy Produced by Segmental Spinal Nerve Ligation in the Rat, Pain, 1992, 50, 355-363). The antiallodynic effect of the composition of the present invention in the Chung Model is expressed in % MPE (Maximum Possible Effect).
Male Sprague-Dawley rats, weighing approximately 200 g each were anesthetized with isoflurane. The spinal nerve at the level of L5 was exposed through an incision just left of the dorsal midline and tightly ligated with 6-0 silk. At various times after surgery, animals were tested for mechanical allodynia with von Frey hairs (monofilaments which are calibrated to bend under a certain amount of pressure, ranging from 0.41 to 15.1 g). In order to calculate a paw withdrawal threshold (PWT), tactile allodynia was measured by recording the pressure at which the affected paw was withdrawn from graded stimuli according to the procedure of S. R. Chaplan, J. W. Pogrel, T. L. Yaksh, Role of Voltage-Dependent Calcium Channel Subtypes in Experimental Tactile Allodynia, J. Pharmacol. Exp. Ther., 1994, 269, 1117-1123. Normal rats can withstand at least 15 g of pressure without responding. Operated rats, however, can respond to as little as 0.25 g of pressure. The surgery was deemed successful if the animal responded with a PWT of less than 4 g of pressure applied to the affected paw. […] The PWT was used to calculate the % maximal possible effect (% MPE) according to the formula: %MPE=100×[(PWT−CT)/(CO−CT)]; wherein PWT is defined as Paw Withdrawal Threshold, CT is Control Threshold, and CO is Cut Off (defined as 15 g).
The sham operation consisted of a similar surgery; the spinal nerve was visualized without being ligated.
Compounds selected from Formula (I) and Formula (II) were tested for activity in treating or modulating neuropathic pain by being dissolved or suspended in either water or hydroxypropyl methylcellulose, respectively. Postoperative animals between 14 to 42 days were fasted overnight prior to dosing. Animals were orally dosed and dosage volumes were calculated on a 4 mL/kg basis.

Q: Cn1cc(C(=O)c2ccncc2)cc1C(=O)c1ccc(Cl)cc1 [Cpd 1, [5-(4-Chlorobenzoyl)-1-methyl-1H-pyrrol-3-yl]pyridin-4-ylmethanone] was tested. Which “% GFI at 10 μM (% guanidinium flux inhibition)” value [1] did it give?
A: 23%

Q: What about the ED50 [2] of the same molecule?
A: 22 mg/kg
